Patent US20260207621A1 (Vividion Therapeutics, Inc., priority 2022, published 2026)
pIC50: −log10 of the molar value.

Legend:
[1] = tested on: Nrf2; test: Nrf2 antagonism assay: ARE luciferase reporter in KYSE-70 cells; assay type: cell-based; details: positive Imax corresponds to Nrf2 antagonism; for Emax: Homo sapiens, KYSE-70, KYSE-70 cells, read-out: KYSE70 Cellular ARE Luciferase Imax (%); for KYSE70 Cellular ARE Luciferase Imax (%): KYSE-70 cells
Outline: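 KYSE-70 esophageal squamous carcinoma cells carrying Nrf2 W24C (constitutively Nrf2-high) with an ARE-driven luciferase reporter. Loss of luciferase signal reflects Nrf2 antagonism via KEAP1 C151 engagement. IC50 and Imax come from dose-response curves; positive Imax means antagonism.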

[2] = molecular target: T1, KEAP1 C151 (Homo sapiens, UniProt Q14145); test: Nrf2 TMT measurement: in vitro TE50 for KEAP1 C151 (IA-DTB competition, targeted TMT mass spectrometry) in MDA-MB-468 cell lysate; assay type: binding; details: in vitro target engagement of KEAP1 C151, targeted TMT, read-out: KEAP1_C151 TE50
T1 construct: treating 500 μg of cell lysate generated from MDA-MB-468 breast cancer cells with DMSO or compound; endogenous in cells; host or cells: MDA-MB-468 breast cancer cell lysate
T1 sequence (Q14145 whole entry): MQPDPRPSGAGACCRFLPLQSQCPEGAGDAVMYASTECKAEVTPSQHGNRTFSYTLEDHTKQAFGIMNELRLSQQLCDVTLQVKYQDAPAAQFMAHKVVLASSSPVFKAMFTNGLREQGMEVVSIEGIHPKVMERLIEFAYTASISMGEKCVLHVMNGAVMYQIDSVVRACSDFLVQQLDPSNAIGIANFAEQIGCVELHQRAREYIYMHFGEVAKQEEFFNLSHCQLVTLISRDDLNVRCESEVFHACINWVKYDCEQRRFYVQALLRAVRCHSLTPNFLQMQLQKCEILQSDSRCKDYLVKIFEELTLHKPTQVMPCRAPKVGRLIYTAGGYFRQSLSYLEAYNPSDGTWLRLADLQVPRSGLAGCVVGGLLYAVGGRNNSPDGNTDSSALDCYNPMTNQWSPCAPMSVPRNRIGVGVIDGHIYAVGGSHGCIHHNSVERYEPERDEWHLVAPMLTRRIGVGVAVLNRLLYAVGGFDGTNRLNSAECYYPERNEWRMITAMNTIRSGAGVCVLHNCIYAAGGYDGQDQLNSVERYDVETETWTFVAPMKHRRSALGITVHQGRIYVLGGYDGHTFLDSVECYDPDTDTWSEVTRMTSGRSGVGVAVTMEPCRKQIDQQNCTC
Experimental: In vitro TE50 values for KEAP_C151 were obtained by treating 500 μg of cell lysate generated from MDA-MB-468 breast cancer cells with DMSO or compound for 1 hour at room temperature followed by the addition of 200 μM IA-DTB (in DMSO) for one hour at room temperature. Samples were then precipitated by the addition of 8× ice cold acetonitrile and incubated at −80° C. for two hours. Protein was then pelleted by centrifugation (4,200 RPM, 45 min, 4° C.). The pelleted material was resuspended in 9M Urea, 50 mM ammonium bicarbonate and proteins were reduced and alkylated by the addition of DTT and iodoacetamide (10 and 30 mM, respectively). Following reduction and alkylation, samples were exchanged into 2M urea (Zeba spin desalting plates, Thermo Fisher) and digested with Trypsin. IA-DTB labeled peptides were isolated with streptavidin agarose resin. Enriched peptides were eluted by the addition of 50% acetonitrile (ACN) 0.1% Formic Acid (FA) and dried in a SpeedVac vacuum concentrator.
Dried peptides were resuspended in 0.2 M EPPS pH 8.5 and treated with 6.5 μL of 11-plex tandem mass tag (TMT) (8.3 μg/μL in dry ACN) for 2 hours at room temperature. Reactions were quenched by the addition of 6.5 μL of 5% Hydroxylamine. Samples were then combined and desalted on a Biotage Evolute express ABN plate (600-0010-PX01).
Targeted TMT. Targeted TMT measurements were collected using an Orbitrap LumosTribrid Mass Spectrometer (Thermo Scientific) coupled to an UltiMate 3000 Series Rapid Separation LC system and autosampler (Thermo Scientific Dionex). Peptides were eluted onto a custom C18 capillary analytical column (75-μm inner diameter fused silica, packed with Acclaim PepMap C18 resin (Thermo Scientific)) using an Acclaim PepMap 100 (Thermo 164535) loading column, and separated at a flow rate of 1.0 μl min−1. Data were acquired using a specific MS3-based TMT method targeting the peptide containing KEAP1 C151 (C(+324.2)[…], +3 charge state) where MS2 peptide fragmentation is triggered upon detection of the peptide precursor ion. Subsequent MS3 analysis was then performed using pre-selected peptide fragment ions that were isolated for fragmentation using synchronous precursor selection. RAW files were converted to MZXML format and searched with the SEQUEST algorithm using the MassPike software package. TMT quantitation was performed with a filter requiring at least ten summed signal-to-noise for control channels. Quantified signals were used for dose response curve-fitting and IC50 calculation using R's drc package.

| pIC50 [2] | SMILES | Emax [1] [%] | KYSE70 Cellular ARE Luciferase Imax (%) [1] [%] |
| --- | --- | --- | --- |
| 7.96 | C=CC(=O)N1CC2(CC2)OCC1c1cc(Cl)cc(-c2ccnc(C(N)=O)c2)c1 (single isomer, unassigned) [Compound 122, 4-(3-(7-acryloyl-4-oxa-7-azaspiro[2.5]octan-6-yl)-5-chlorophenyl)picolinamide] | 88 | – |
| 7.36 | C=CC(=O)N1[C@H](C)COC[C@H]1c1cc(Cl)cc(-c2ncnc(N)n2)c1 (single isomer, unassigned) [Compound 102] | 92 | – |
| 6.63 | C=CC(=O)N1CCS(=O)(=O)CC1c1cc(Cl)cc(-c2ccnc(C)n2)c1 (single isomer, unassigned) [Compound 51, 1-(3-(3-chloro-5-(2-methylpyrimidin-4-yl)phenyl)-1,1-dioxidothiomorpholino)prop-2-en-1-one] | – | 89 |
| 7.44 | C=CC(=O)N1CCOC[C@H]1c1cc(Cl)cc(-c2cc(OC)ccn2)c1 (single isomer, unassigned) [Compound 105] | 92 | – |
| 7.49 | C=CC(=O)N1CC(C)(C)OC[C@H]1c1cc(Cl)cc(-c2cnc(N)c(N)n2)c1 (single isomer, unassigned) [Compound 286] | 96 | – |
| 7.31 | C=CC(=O)N1CCOC[C@H]1c1cc(Cl)cc(-c2ncc(C(N)=O)o2)c1 (single isomer, unassigned) [Compound 220] | 73 | – |
| 7.30 | C=CC(=O)N1CCOC[C@H]1c1cc(Cl)cc(-c2ccn(C)c(=O)c2)c1 (single isomer, unassigned) [Compound 13] | 72 | – |
| 6.25 | C=CC(=O)N1CCOC[C@H]1c1cc(Cl)cc(-c2nc(N)nc(NCCCN(C)C)n2)c1 (single isomer, unassigned) [Compound 229] | 92 | – |
| 7.92 | C=CC(=O)N1CCN(C(C)=O)C[C@H]1c1cc(Cl)cc(-c2ccnc(N)n2)c1 (single isomer, unassigned) [Compound 81] | 85 | – |
| 7.70 | C=CC(=O)N1CC(C)(C)OC[C@H]1c1cc(Cl)cc(-c2ccc3nccnc3c2)c1 (single isomer, unassigned) [Compound 47] | 74 | – |
| 6.85 | C=CC(=O)N1CCOC[C@H]1c1cc(Cl)cc(-c2cccc(OC)n2)c1 (single isomer, unassigned) [Compound 100] | 78 | – |
| 7.66 | C=CC(=O)N1CCN(S(C)(=O)=O)C[C@H]1c1cc(Cl)cc(-c2cc[nH]c(=O)c2)c1 (single isomer, unassigned) [Compound 15] | 57 | – |
| > 8.19 | C=CC(=O)N1CCOC[C@H]1c1cc(Cl)cc(-c2cc(N)cnn2)c1 (single isomer, unassigned) [Compound 132] | 78 | – |
| 6.48 | C=CC(=O)N1CCOC[C@H]1c1cc(Cl)cc(C2CNC(=O)NC2)c1 (single isomer, unassigned) [Compound 222] | 85 | – |
| 7.00 | C=CC(=O)N1CCOC[C@H]1c1cc(Cl)cc(-c2ncnc(NC)n2)c1 (single isomer, unassigned) [Compound 214] | 93 | – |
| 7.10 | C=CC(=O)N1CCOCC1c1cc(Cl)nc(-c2cc(C#N)ncn2)c1 (single isomer, unassigned) [Compound 129, 6-(4-(4-acryloylmorpholin-3-yl)-6-chloropyridin-2-yl)pyrimidine-4-carbonitrile] | 84 | – |
| 6.42 | C=CC(=O)N1CCOC[C@H]1c1cc(Cl)cc(-c2nc(O)n[nH]2)c1 (single isomer, unassigned) [Compound 210] | 55 | – |
| 7.64 | C=CC(=O)N1CCOC[C@H]1c1cc(Cl)cc(-c2ncc(N)cn2)c1 (single isomer, unassigned) [Compound 92] | 94 | – |

| pIC50 [2] | SMILES | Emax [1] [%] | KYSE70 Cellular ARE Luciferase Imax (%) [1] [%] |
| --- | --- | --- | --- |
| 7.23 | C=CC(=O)N1CCOC[C@H]1c1cc(Cl)cc(-c2cc(N)nc(Cl)n2)c1 (single isomer, unassigned) [Compound 271] | 93 | – |
| 7.27 | C=CC(=O)N1CCOCC1c1cc(Cl)cc(-c2ccc(C(N)=O)cc2)c1 (single isomer, unassigned) [Compound 70, 3′-(4-acryloylmorpholin-3-yl)-5′-chloro-[1,1′-biphenyl]-4-carboxamide] | 81 | – |
| 6.60 | C=CC(=O)N1CCOC[C@H]1c1cc(Cl)cc(C2CCNC(=O)N2)c1 (single isomer, unassigned) [Compound 242] | 59 | – |
| 7.05 | C=CC(=O)N1CC2(CC2)OCC1c1cc(Cl)cc(-c2ccnc(C)n2)c1 (single isomer, unassigned) [Compound 83, 1-(6-(3-chloro-5-(2-methylpyrimidin-4-yl)phenyl)-4-oxa-7-azaspiro[2.5]octan-7-yl)prop-2-en-1-one] | 86 | – |
| > 8.19 | C=CC(=O)N1CCOC[C@H]1c1cc(Cl)cc(-c2cnc(N)c(F)n2)c1 [Compound 289, (R)-1-(3-(3-(5-amino-6-fluoropyrazin-2-yl)-5-chlorophenyl)morpholino)prop-2-en-1-one] | 95 | – |
| 6.49 | C=CC(=O)N1CC[C@](C)(O)C[C@@H]1c1cc(Cl)cc(-c2ncc(N)cn2)c1 (single isomer, unassigned) [Compound 266] | 90 | – |
| > 8.19 | C=CC(=O)N1[C@H](c2cc(Cl)cc(-c3ncc(N)cn3)c2)COC[C@H]1C(F)F (single isomer, unassigned) [Compound 291] | 93 | – |
| 7.75 | C=CC(=O)N1CCOCC1c1cc(Cl)cc(-c2ccnc(C)n2)c1 (single isomer, unassigned) [Compound 35, 1-(3-(3-chloro-5-(2-methylpyrimidin-4-yl)phenyl)morpholino)prop-2-en-1-one] | 89 | – |
| 7.64 | C=CC(=O)N1CCOC[C@H]1c1cc(Cl)cc(-c2ccnc3[nH]ccc23)c1 (single isomer, unassigned) [Compound 97] | 86 | – |
| 7.17 | C=CC(=O)N1CC(C)(C)OC[C@H]1c1cc(Cl)cc(-c2nccc(N)n2)c1 (single isomer, unassigned) [Compound 155] | 94 | – |
| 5.17 | C=CC(=O)N1CC2(CC2)OCC12COc1c(-c3ccnc(N)n3)cc(Cl)cc12 (single isomer, unassigned) [Compound 192] | 64 | – |
| 7.12 | C=CC(=O)N1CC2(CC2)OCC1c1cc(Cl)nc(-c2cc(N)ncn2)c1 (single isomer, unassigned) [Compound 174, 1-(6-(2-(6-aminopyrimidin-4-yl)-6-chloropyridin-4-yl)-4-oxa-7-azaspiro[2.5]octan-7-yl)prop-2-en-1-one] | – | 51 |
| 7.18 | C=CC(=O)N1CCOCC1c1cc(Cl)cc(-c2cnn(C)c(=O)c2)c1 (single isomer, unassigned) [Compound 53, 5-(3-(4-acryloylmorpholin-3-y1)-5-chlorophenyl)-2-methylpyridazin-3(2H)-one] | 55 | – |
| 6.66 | C=CC(=O)N1CCCCC1c1cc(Cl)cc(-c2ncc(N)cn2)c1 (single isomer, unassigned) [Compound 239, 1-(2-(3-(5-aminopyrimidin-2-yl)-5-chlorophenyl)piperidin-1-yl)prop-2-en-1-one] | 83 | – |
| 7.44 | C=CC(=O)N1CCOC[C@H]1c1cc(Cl)cc(-c2cc3[nH]ccc3cn2)c1 (single isomer, unassigned) [Compound 296] | 96 | – |
| 7.57 | C=CC(=O)N1CCOCC1c1cc(Cl)cc(-c2cc(F)cc(C(N)=O)c2)c1 (single isomer, unassigned) [Compound 72, 3′-(4-acryloylmorpholin-3-yl)-5′-chloro-5-fluoro-[1,1′-biphenyl]-3-carboxamide] | 80 | – |
| 7.30 | C=CC(=O)N1CCOC[C@H]1c1cc(Cl)cc(-c2ccncc2)c1 (single isomer, unassigned) [Compound 126] | 72 | – |
